Measured values from patent US20240277740A1, “TREATMENT OF KNOWN AND UNKNOWN VIRAL INFECTION WITH LIPID AGENTS” (Viratides, LLC, priority 2020, published 2024).
In brackets after ≈: the same amount, converted by molar mass. Several values for one entry are separate records, joined by “and”; a condition that tells them apart may be missing. Equal values may be shown once. Read-outs that look alike come from different tables or passages of the source.

What was measured:
uninfected Vero E6 cells = details: for Viability of Uninfected Vero E6 Cells: 4-day treatment, mean ± s.d. of duplicates; for Viability of Uninfected Vero E6 Cells (A540): 4 days, raw duplicates
[1] = tested on: SARS-CoV-2 (MEX-BC2/2020); assay: Live SARS-CoV-2 CPE-based antiviral assay in Vero E6 cells (neutral red); type: cell-based

C[S+](C)[O-] [DMSO, reference compound]
block of cell viability (uninfected Vero E6 cells; tested at 10%): more than 95%

N#C[C@@]1(c2ccc3c(N)ncnn23)O[C@H](CO)[C@@H](O)[C@H]1O [GS-441524, reference compound]
Inhibition of SARS-CoV-2 (MEX-BC2/2020) Virus-Induced CPE ([1]; 0.03 μM, single data point): 0.09 % mock | Inhibition of SARS-CoV-2 (MEX-BC2/2020) Virus-Induced CPE ([1]; 0.08 μM, single data point): 1.1 % mock | Inhibition of SARS-CoV-2 (MEX-BC2/2020) Virus-Induced CPE ([1]; 0.25 μM, single data point): 16.1 % mock | Raw OD - Absorbance (540 nm), infected cells ([1]; 0.25 μM, single data point): 0.194 | Inhibition of SARS-CoV-2 (MEX-BC2/2020) Virus-Induced CPE ([1]; 0.74 μM, single data point): 134.9 % mock | Raw OD - Absorbance (540 nm), infected cells ([1]; 0.74 μM, single data point): 0.648 | Inhibition of SARS-CoV-2 (MEX-BC2/2020) Virus-Induced CPE ([1]; 1 μM): 110.2 % mock | Raw OD - Absorbance (540 nm), infected cells ([1]; 1 μM): 0.554 and 0.553 | Inhibition of SARS-CoV-2 (MEX-BC2/2020) Virus-Induced CPE ([1]; 6.7 μM, single data point): 116.6 % mock | Raw OD - Absorbance (540 nm), infected cells ([1]; 6.7 μM, single data point): 0.578 | Inhibition of SARS-CoV-2 (MEX-BC2/2020) Virus-Induced CPE ([1]; 10 μM): 100.0 % mock | Raw OD - Absorbance (540 nm), infected cells ([1]; 10 μM): 0.507 and 0.522 | IC50 ([1]; Severe acute respiratory syndrome coronavirus 2, Vero C1008, Vero E6, 96 h, estimated by GraphPad Prism, R2 = 0.977): ~280 nM | concentrations at which virus-induced CPE was completely prevented ([1]; Vero E6): ≥ 0.74 µM | prevention of virus-induced CPE by control inhibitor (in words) ([1]; quality control of infectivity assay): prevented completely the virus-induced CPE

CCCCCCCC/C=C\CCCCCCCCCCCCCC(=O)N[C@@H](CO[C@@H]1O[C@H](CO)[C@H](O)[C@H](OS(=O)(=O)O)[C@H]1O)[C@H](O)/C=C/CCCCCCCCCCCCC [Sulfatide 24:1, C24:1 3′-sulfo Galactosylceramide (d18:1/24:1(15Z))]
CC50 (uninfected Vero E6 cells): >100 µg/mL | cytotoxicity in viability assay (in words) (uninfected Vero E6 cells): dose-dependent trend of cytotoxicity | Viability of Uninfected Vero E6 Cells (uninfected Vero E6 cells; 0.78 μg/mL): 89.8 ± 5.8 % vehicle | Viability of Uninfected Vero E6 Cells (A540) (uninfected Vero E6 cells; 0.78 μg/mL): 0.457 and 0.424 | Viability of Uninfected Vero E6 Cells (uninfected Vero E6 cells; 1.6 μg/mL): 99.3 ± 1.4 % vehicle | Viability of Uninfected Vero E6 Cells (A540) (uninfected Vero E6 cells; 1.6 μg/mL): 0.495 and 0.487 | Viability of Uninfected Vero E6 Cells (uninfected Vero E6 cells; 3.1 μg/mL): 97.3 ± 1.4 % vehicle | Viability of Uninfected Vero E6 Cells (A540) (uninfected Vero E6 cells; 3.1 μg/mL): 0.487 and 0.479 | Viability of Uninfected Vero E6 Cells (uninfected Vero E6 cells; 6.25 μg/mL): 95.7 ± 2.3 % vehicle | Viability of Uninfected Vero E6 Cells (A540) (uninfected Vero E6 cells; 6.25 μg/mL): 0.483 and 0.470 | Viability of Uninfected Vero E6 Cells (uninfected Vero E6 cells; 12.5 μg/mL): 95.6 ± 3.5 % vehicle | Viability of Uninfected Vero E6 Cells (A540) (uninfected Vero E6 cells; 12.5 μg/mL): 0.486 and 0.466 | Viability of Uninfected Vero E6 Cells (uninfected Vero E6 cells; 25 μg/mL): 85.8 ± 11.0 % vehicle | Viability of Uninfected Vero E6 Cells (A540) (uninfected Vero E6 cells; 25 μg/mL): 0.468 and 0.405 | Viability of Uninfected Vero E6 Cells (uninfected Vero E6 cells; 50 μg/mL): 73.7 ± 13.1 % vehicle | Viability of Uninfected Vero E6 Cells (A540) (uninfected Vero E6 cells; 50 μg/mL): 0.425 and 0.350 | Viability of Uninfected Vero E6 Cells (uninfected Vero E6 cells; 100 μg/mL): 63.8 ± 7.9 % vehicle | Viability of Uninfected Vero E6 Cells (A540) (uninfected Vero E6 cells; 100 μg/mL): 0.370 and 0.325 | Inhibition of SARS-CoV-2 (MEX-BC2/2020) Virus-Induced CPE ([1]; 0.78 μg/mL, average ± s.d. of duplicates): −3.4 ± 0.6 % mock | Raw OD - Absorbance (540 nm), infected cells ([1]; 0.78 μg/mL, duplicates): 0.121 and 0.118 | Inhibition of SARS-CoV-2 (MEX-BC2/2020) Virus-Induced CPE ([1]; 1.6 μg/mL, average ± s.d. of duplicates): −1.7 ± 4.1 % mock | Raw OD - Absorbance (540 nm), infected cells ([1]; 1.6 μg/mL, duplicates): 0.137 and 0.115 | Inhibition of SARS-CoV-2 (MEX-BC2/2020) Virus-Induced CPE ([1]; 3.1 μg/mL, average ± s.d. of duplicates): −3.6 ± 1.1 % mock | Raw OD - Absorbance (540 nm), infected cells ([1]; 3.1 μg/mL, duplicates): 0.122 and 0.116 | Inhibition of SARS-CoV-2 (MEX-BC2/2020) Virus-Induced CPE ([1]; 6.25 μg/mL, average ± s.d. of duplicates): −3.8 ± 1.1 % mock | Raw OD - Absorbance (540 nm), infected cells ([1]; 6.25 μg/mL, duplicates): 0.115 and 0.121 | Inhibition of SARS-CoV-2 (MEX-BC2/2020) Virus-Induced CPE ([1]; 12.5 μg/mL, average ± s.d. of duplicates): 1.3 ± 3.9 % mock | Raw OD - Absorbance (540 nm), infected cells ([1]; 12.5 μg/mL, duplicates): 0.127 and 0.18 | Inhibition of SARS-CoV-2 (MEX-BC2/2020) Virus-Induced CPE ([1]; 25 μg/mL, average ± s.d. of duplicates): 1.9 ± 2.2 % mock | Raw OD - Absorbance (540 nm), infected cells ([1]; 25 μg/mL, duplicates): 0.134 and 0.146 | Inhibition of SARS-CoV-2 (MEX-BC2/2020) Virus-Induced CPE ([1]; 50 μg/mL, average ± s.d. of duplicates): 21.6 ± 13.0 % mock | Raw OD - Absorbance (540 nm), infected cells ([1]; 50 μg/mL, duplicates): 0.180 and 0.250 | Inhibition of SARS-CoV-2 (MEX-BC2/2020) Virus-Induced CPE ([1]; 100 μg/mL, average ± s.d. of duplicates): 61.3 ± 8.5 % mock | Raw OD - Absorbance (540 nm), infected cells ([1]; 100 μg/mL, duplicates): 0.390 and 0.344 | IC50 (antiviral) ([1]; Vero E6, 96 h, neutral red): 84.9 µg/mL (≈ 95.4 µM) | prevention of virus-induced CPE (in words) ([1]; at the two highest concentrations tested, 50 μg/mL and 100 μg/mL): prevented the virus-induced cytopathic effect (CPE) in a dose-dependent manner
